Measured values published in US20100003217A1, “Compounds and Pharmaceutical Compositions for the Treatment of Viral Infections” (priority 2008, published 2010).

Experiments:
GS4.1 cells = assay: Cytotoxicity assay (MTS), GS4.1 cells; assay type: cell-based, human; details: 3 days (NS4A-ELISA Assay)
Description: The cytotoxicity assay measures the viability of cells after treatment with a test compound for 3 days in either GS4.1 cells or Zluc cells. […] The cytotoxicity assay is summarized as follows. Ninety-six-well tissue culture plates were seeded with GS4.1 or Zluc cells. Antiviral compound solutions were made up freshly in medium as 2×-concentrated stocks. Eight additional 3-fold drug dilutions were prepared from these stocks in medium for a total of 9 dilutions. At least four hours after the cells were seeded, drug treatment was initiated by adding one volume of each 2×-concentrated drug dilution to one volume of cells/medium in the tissue culture plates. Cells were then incubated for 3 days at 37° C./5% CO2. After 3 days of treatment, the CellTiter 96® Aqueous One Solution cell proliferation assay (Promega) was performed by adding the MTS solution to each well. The plates were then incubated at 37° C./5% CO2 for 3.5 hours. Plates were then read in a Victor^3V 1420 multilabel counter (Perkin Elmer) and CC50 concentrations were determined using Microsoft Excel and XLfit 4.1 software.

[1] = tested on: HCV genotype 1b replicon (GS4.1 cells); assay: HCV replicon assay (NS4A ELISA); assay type: cell-based, hepatitis C virus; details: 3 days
Description: The biological activity of Compound 1, diastereomer 1 and diastereomer 2 was measured by monitoring expression of the NS4A protein by enzyme-linked immunosorbent assay (ELISA) and by luciferase assay as described below:
The HCV replicon assay measures the ability of a test compound to inhibit HCV replication in cell culture after 3 days of treatment in a human hepatoma cell line (Huh-7) bearing the HCV genotype 1b replicon (GS4.1 cells). The inhibition of HCV replication was measured by quantification of viral NS4A protein using an enzyme-linked immunosorbent assay (ELISA). […] Additionally, the replicon contains the neomycin phosphotransferase gene under the control of the HCV promoter (Source: Dr. Christoph Seeger, Fox Chase Cancer Center, Philadelphia, Pa.).
The NS4A ELISA assay is summarized as follows. Ninety-six-well tissue culture plates were seeded with GS4.1 cells. Antiviral compound solutions were made up freshly in medium as 2×-concentrated stocks. Eight additional 3-fold drug dilutions were prepared from these stocks in medium for a total of 9 dilutions. At least four hours after GS4.1 cells were seeded, drug treatment was initiated by adding one volume of each 2× concentrated drug dilution to one volume of cells/medium in the tissue culture plates. Cells were then incubated for 3 days at 37° C./5% CO2.
The media/compound was then removed from the plates and cells were fixed with acetone:methanol, washed three times with a wash solution, and then blocked for 1 hour with 10% fetal bovine serum in a balanced salt solution. Cells were washed three times and incubated with an anti-hepatitis C NS4A monoclonal antibody (Virogen Corp.) for 2 hours at 37° C. […] The reaction was stopped with diluted sulfuric acid (Mallinckrodt Chemicals) and absorbance measured on a Victor^3V 1420 multilabel counter (Perkin Elmer). EC50 values were calculated from dose response curves from the resulting best-fit equations determined by Microsoft Excel and XLfit 4.1 software.

[2] = tested on: HCV genotype 1b replicon (Zluc cells); assay: HCV luciferase replicon assay; assay type: cell-based, hepatitis C virus; details: 3 days
Description: The HCV luciferase replicon assay measures the ability of a test compound to inhibit HCV replication in cell culture after 3 days of treatment in a human hepatoma cell line (Huh-7) bearing the HCV genotype 1b replicon and a luciferase-neomycin phosphotransferase fusion gene. The inhibition of HCV replication was measured by quantification of luciferase protein expression. The HCV luciferase replicon was constructed by fusing a luciferase gene to the amino terminus of the neomycin phosphotransferase gene of the ZS11 HCV replicon. The ZS11 HCV replicon (Zhu Q, Guo J-T, and Seeger C, 2003) is derived from the SP1 replicon, but contains three cell culture-adapted mutations: E1202G (NS3), S22041 (NS5A), and D2254E (NS5A). These mutations allow for efficient in vitro replication. The luciferase reporter gene was amplified from the pGL4.13[luc2/SV40] vector (Promega Corp.). The replicon resulting from the luciferase-neomycin fusion (ZS11-luc) was stably-transfected into Huh-7 cells, yielding the Zluc cell line.
The luciferase replicon assay is summarized as follows: Solid white 96-well tissue culture plates (BD Falcon) were seeded with Zluc cells. Antiviral compound solutions were made up freshly in medium as 2×-concentrated stocks. Eight additional 3-fold drug dilutions were prepared from these stocks in medium for a total of 9 dilutions. At least four hours after Zluc cells were seeded, drug treatment was initiated by adding one volume of each 2×-concentrated drug dilution to one volume of cells/medium in the tissue culture plates. Cells were then incubated for 3 days at 37° C./5% CO2.
The media/compound was then removed from the plates and the ONE-glo Luciferase assay reagent (Promega) was added to each well. The assay plates were shaken for 3 minutes at room temperature and luciferase activity for each well was measured with a 1 sec read time on the Victor^3V multilabel counter using a 700 nm cut-off filter (Perkin Elmer). EC50 values were calculated from dose response curves from the resulting best-fit equations determined by Microsoft Excel and XLfit 4.1 software.

[3] = Incubation with rat liver cytosol; assay type: in vitro ADME; details: rat cytosol 1 mg/mL, 2 hours, 10 μM
Description: (§1) Pooled liver cytosol (1.0 mg protein/mL) suspended in incubation buffer (0.1 M potassium phosphate, pH 7.4) was incubated for 2 hours at 37° C. with 10 μM Compound 1 from a stock solution in DMSO (final DMSO concentration was 0.1%); reaction was initiated with the addition of test article. Incubations with no protein served as control. Reactions were terminated by the addition of 0.1 mL of stop solution (acetonitrile). The samples were vortex-mixed for 30 sec and then centrifuged at 10,000×g for 10 min. The supernatant was dried using a Labconco CentriVap concentrator and the dry residue reconstituted in water, transferred to an HPLC glass vial and analyzed by HPLC-UV method 2 (described above).
(§2) Metabolic stability of the proposed metabolites was conducted by incubating the chemically synthesized standards Compound 2, Compound 4 and Compound 3 as described above for Compound 1. When possible, formation of Compound 5 was verified by incubating samples with alkaline phosphatase (10 U) for 60 min at 37° C.

[4] = Incubation with human liver cytosol; assay type: in vitro ADME; details: human cytosol 1 mg/mL, 2 hours, 10 μM
Description: as §1, §2

[5] = Stability in human liver microsomes; assay type: in vitro ADME; details: human microsomes 1 mg/mL, 60 min, 50 μM
Description: (§3) Disappearance of parent Compound 1 was used to evaluate the in vitro metabolism thereof. Relative levels of unchanged Compound 1 were measured by HPLC-UV method 1. Residual Compound 1 is reported as percent difference from time zero or control. The HPLC-UV system was as follows:
Incubations with liver microsomes or cytosol were conducted in a final volume of 0.1 mL per incubation time point. […] The microsomal reaction was initiated by the addition of NADPH (3 mM final concentration). Incubations with (a) no protein or (b) no NADPH served as controls. Reactions were terminated by the addition of 0.2 mL of stop solution (acetonitrile). The samples were vortex-mixed for 30 sec and then centrifuged at 10,000×g for 10 min. The supernatant was dried using a Labconco CentriVap concentrator and the dry residue reconstituted in water, transferred to an HPLC glass vial and analyzed by HPLC-UV method 1 (described above).
as §2

[6] = Stability in monkey liver microsomes; assay type: in vitro ADME; details: monkey microsomes 1 mg/mL, 60 min, 50 μM
Description: as §3
(§4) Incubations with liver microsomes or cytosol were conducted in a final volume of 0.1 mL per incubation time point. […] DMSO (final DMSO concentration was 0.1%) was incubated at 37° C. from 0-60 min with pooled microsomal protein (1.0 mg/mL), suspended in incubation buffer (0.1 M potassium phosphate, pH 7.4, 5 mM MgCl2, and 0.1 mM EDTA). The microsomal reaction was initiated by the addition of NADPH (3 mM final concentration). Incubations with (a) no protein or (b) no NADPH served as controls. Reactions were terminated by the addition of 0.2 mL of stop solution (acetonitrile). The samples were vortex-mixed for 30 sec and then centrifuged at 10,000×g for 10 min. The supernatant was dried using a Labconco CentriVap concentrator and the dry residue reconstituted in water, transferred to an HPLC glass vial and analyzed by HPLC-UV method 1 (described above).
as §2

[7] = Incubation with monkey liver cytosol; assay type: in vitro ADME; details: monkey cytosol 1 mg/mL, 2 hours, 10 μM
Description: as §1, §2

[8] = Stability in rat liver microsomes; assay type: in vitro ADME; details: rat microsomes 1 mg/mL, 60 min, 50 μM
Description: as §3, §4, §2

pig liver esterase = assay: Incubation with pig liver esterase; assay type: in vitro ADME; details: Esterase 14 U, 60 min, 10 μM
Description: as §1, with “Pig” for “Pooled”, “esterase (14 U)” for “cytosol (1.0 mg protein/mL)”, “60 min” for “2 hours”, “controls.” for “control.”
as §2

| Residual compound following incubation with liver cytosol [3] [%] | Residual compound following incubation with liver cytosol [4] [%] | % Residual compound following incubation with liver microsomes ([5]; NADPH) [%] | % Residual compound following incubation with liver microsomes ([5]; No Cofactor) [%] | % Residual compound following incubation with liver microsomes ([6]; NADPH) [%] | % Residual compound following incubation with liver microsomes ([6]; No Cofactor) [%] | Residual compound following incubation with liver cytosol [7] [%] | % Residual compound following incubation with liver microsomes ([8]; NADPH) [%] | % Residual compound following incubation with liver microsomes ([8]; No Cofactor) [%] | Residual compound following incubation with pig liver esterase (pig liver esterase) [%] | SMILES | CC50 (GS4.1 cells) [nM] | EC50 [1] [nM] | EC50 [2] [nM] |
| --- | --- | --- | --- | --- | --- | --- | --- | --- | --- | --- | --- | --- | --- |
| – | – | – | – | – | – | – | – | – | – | CC(C)(CO)C(=O)SCCOP(=O)(NCc1ccccc1)OC[C@H]1O[C@@H](n2cnc3c(=O)[nH]c(N)nc32)[C@](C)(O)[C@@H]1O (single isomer, unassigned; diastereomer 1) [Diastereomer 1] | > 100000 | 704 ± 372 | 165 ± 23 |
| 101 | 100 | 93 | 100 | 83 | 100 | 103 | 89 | 100 | 100 | C[C@@]1(O)[C@H](O)[C@@H](COP(N)(=O)O)O[C@H]1n1cnc2c(=O)[nH]c(N)nc21 [Compound 4, {9-[(2R)2-C-methyl-β-D-ribo-furanosyl]-guanin}-5′-yl phosphoramidate] | – | – | – |
